# Results reported in patent US10597388B2, “Pyridazinone herbicides” (FMC CORPORATION, priority 2014, dated 2020).
# Experiments:
# Assay in all cases: Test C greenhouse herbicide test, pre- and postemergence
# Format in all cases: in vivo
# soybean (Glycine max) = system: soybean (Glycine max)
# Outline: (§1)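 Percent-control ratings (0 none, 100 complete) came from visual comparison with controls held alongside in the greenhouse for 13–15 d. Treatments covered soil application at sowing and foliar application to young plants 2–18 cm tall.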
# [1] = system: wheat (winter wheat, Triticum aestivum)
# Outline: as §1
# [2] = system: velvetleaf (Abutilon theophrasti)
# Outline: as §1
# [3] = system: ryegrass, Italian (Italian ryegrass, Lolium multiflorum)
# Outline: as §1
# [4] = system: crabgrass, large (large crabgrass, Digitaria sanguinalis)
# Outline: as §1
# [5] = system: ragweed (common ragweed, Ambrosia elatior)
# Outline: as §1
# [6] = system: blackgrass (Alopecurus myosuroides)
# Outline: as §1
# [7] = system: nutsedge, yellow (yellow nutsedge, Cyperus esculentus)
# Outline: as §1
# [8] = system: galium (catchweed bedstraw, Galium aparine)
# Outline: as §1
# [9] = system: barnyardgrass (Echinochloa crus-galli)
# Outline: as §1
# [10] = system: pigweed (Amaranthus retroflexus)
# Outline: as §1
# [11] = system: oilseed rape (Brassica napus)
# Outline: as §1
# corn (Zea mays) = system: corn (Zea mays)
# Outline: as §1
# [12] = system: lambsquarters (Chenopodium album)
# Outline: as §1
# [13] = system: foxtail, giant (giant foxtail, Setaria faberii)
# Outline: as §1
# [14] = 4 g ai/ha, preemergence, visual rating, scale 0 to 100 (0 no effect, 100 complete control), 13 to 15 d
# [15] = Postemergence, 8 g ai/ha, scale 0 to 100 (0 no effect, 100 complete control)
# [16] = Postemergence, 16 g ai/ha, scale 0 to 100 (0 no effect, 100 complete control)
# [17] = Postemergence, 31 g ai/ha, scale 0 to 100 (0 no effect, 100 complete control)
# [18] = Preemergence, 16 g ai/ha, scale 0 to 100, 0 is no effect, 100 is complete control
# [19] = Preemergence, 31 g ai/ha, scale 0 to 100, 0 is no effect, 100 is complete control
# [20] = Preemergence, 8 g ai/ha, scale 0 to 100, 0 is no effect, 100 is complete control
# [21] = Postemergence, 4 g ai/ha, scale 0 to 100 (0 no effect, 100 complete control)
compound,measurement,setting,value
Cc1ccc2ccc(Cl)cc2c1-c1c(O)c(C)nn(C)c1=O [Compound 144],"Plant response rating, Soybean",soybean (Glycine max); [14],10
same,"Plant response rating, Soybean",soybean (Glycine max); [15],40
same,Soybean plant response rating,soybean (Glycine max); [15],45
same,"Plant response rating, Soybean",soybean (Glycine max); [16],25
same,"Plant response rating, Soybean",soybean (Glycine max); [17],25
same,"Plant response rating, Soybean",soybean (Glycine max); [18],0
same,"Plant response rating, Soybean",soybean (Glycine max); [19],5
same,"Plant response rating, Wheat",[1]; [14],0
same,"Plant response rating, Wheat",[1]; [15],90
same,Wheat plant response rating,[1]; [15],90
same,"Plant response rating, Wheat",[1]; [16],95
same,"Plant response rating, Wheat",[1]; [17],95
same,"Plant response rating, Wheat",[1]; [18],70
same,"Plant response rating, Wheat",[1]; [19],90
same,"Plant response rating, Velvetleaf",[2]; [14],25
same,"Plant response rating, Velvetleaf",[2]; [15],70
same,Velvetleaf plant response rating,[2]; [15],50
same,"Plant response rating, Velvetleaf",[2]; [16],90
same,"Plant response rating, Velvetleaf",[2]; [17],85
same,"Plant response rating, Velvetleaf",[2]; [18],85
same,"Plant response rating, Velvetleaf",[2]; [19],90
same,"Plant response rating, Ryegrass, Italian",[3]; [14],80
same,"Plant response rating, Ryegrass, Italian",[3]; [15],35
same,"Ryegrass, Italian plant response rating",[3]; [15],20
same,"Plant response rating, Ryegrass, Italian",[3]; [16],45
same,"Plant response rating, Ryegrass, Italian",[3]; [17],70
same,"Plant response rating, Ryegrass, Italian",[3]; [18],100
same,"Plant response rating, Ryegrass, Italian",[3]; [19],100
same,"Plant response rating, Crabgrass, Large",[4]; [14],0
same,"Crabgrass, Large plant response rating",[4]; [15],20
same,"Plant response rating, Crabgrass, Large",[4]; [15],20
same,"Plant response rating, Crabgrass, Large",[4]; [16],25
same,"Plant response rating, Crabgrass, Large",[4]; [17],30
same,"Plant response rating, Crabgrass, Large",[4]; [20],5
same,"Plant response rating, Crabgrass, Large",[4]; [18],25
same,"Plant response rating, Crabgrass, Large",[4]; [19],60
same,"Plant response rating, Ragweed",[5]; [14],70
same,"Plant response rating, Ragweed",[5]; [15],10
same,Ragweed plant response rating,[5]; [15],10
same,"Plant response rating, Ragweed",[5]; [16],35
same,"Plant response rating, Ragweed",[5]; [17],35
same,"Plant response rating, Ragweed",[5]; [18],95
same,"Plant response rating, Ragweed",[5]; [19],98
same,"Plant response rating, Blackgrass",[6]; [14],30
same,"Plant response rating, Blackgrass",[6]; [21],30
same,"Plant response rating, Blackgrass",[6]; [15],30
same,"Plant response rating, Blackgrass",[6]; [16],20
same,"Plant response rating, Blackgrass",[6]; [17],35
same,"Plant response rating, Blackgrass",[6]; [20],55
same,"Plant response rating, Blackgrass",[6]; [18],70
same,"Plant response rating, Blackgrass",[6]; [19],90
same,"Plant response rating, Nutsedge, Yellow",[7]; [14],5
same,"Nutsedge, Yellow plant response rating",[7]; [15],10
same,"Plant response rating, Nutsedge, Yellow",[7]; [15],60
same,"Plant response rating, Nutsedge, Yellow",[7]; [16],60
same,"Plant response rating, Nutsedge, Yellow",[7]; [17],75
same,"Plant response rating, Nutsedge, Yellow",[7]; [18],25
same,"Plant response rating, Nutsedge, Yellow",[7]; [19],40
same,"Plant response rating, Galium",[8]; [14],90
same,Galium plant response rating,[8]; [15],80
same,"Plant response rating, Galium",[8]; [15],90
same,"Plant response rating, Galium",[8]; [16],90
same,"Plant response rating, Galium",[8]; [17],95
same,"Plant response rating, Galium",[8]; [18],95
same,"Plant response rating, Galium",[8]; [19],100
same,"Plant response rating, Barnyardgrass",[9]; [14],0
same,"Plant response rating, Barnyardgrass",[9]; [21],15
same,"Plant response rating, Barnyardgrass",[9]; [15],25
same,"Plant response rating, Barnyardgrass",[9]; [16],35
same,"Plant response rating, Barnyardgrass",[9]; [17],65
same,"Plant response rating, Barnyardgrass",[9]; [20],0
same,"Plant response rating, Barnyardgrass",[9]; [18],5
same,"Plant response rating, Barnyardgrass",[9]; [19],35
same,"Plant response rating, Pigweed",[10]; [14],75
same,Pigweed plant response rating,[10]; [15],80
same,"Plant response rating, Pigweed",[10]; [15],85
same,"Plant response rating, Pigweed",[10]; [16],85
same,"Plant response rating, Pigweed",[10]; [17],90
same,"Plant response rating, Pigweed",[10]; [18],100
same,"Plant response rating, Pigweed",[10]; [19],100
same,"Plant response rating, Oilseed Rape",[11]; [14],0
same,Oilseed Rape plant response rating,[11]; [15],85
same,"Plant response rating, Oilseed Rape",[11]; [15],95
same,"Plant response rating, Oilseed Rape",[11]; [16],95
same,"Plant response rating, Oilseed Rape",[11]; [17],95
same,"Plant response rating, Oilseed Rape",[11]; [18],5
same,"Plant response rating, Oilseed Rape",[11]; [19],70
same,"Plant response rating, Corn",corn (Zea mays); [14],0
same,"Plant response rating, Corn",corn (Zea mays); [21],0
same,"Plant response rating, Corn",corn (Zea mays); [15],0
same,"Plant response rating, Corn",corn (Zea mays); [16],5
same,"Plant response rating, Corn",corn (Zea mays); [17],30
same,"Plant response rating, Corn",corn (Zea mays); [20],0
same,"Plant response rating, Corn",corn (Zea mays); [18],0
same,"Plant response rating, Corn",corn (Zea mays); [19],0
same,"Plant response rating, Lambsquarters",[12]; [14],25
same,Lambsquarters plant response rating,[12]; [15],80
same,"Plant response rating, Lambsquarters",[12]; [15],90
same,"Plant response rating, Lambsquarters",[12]; [16],90
same,"Plant response rating, Lambsquarters",[12]; [17],90
same,"Plant response rating, Lambsquarters",[12]; [18],65
same,"Plant response rating, Lambsquarters",[12]; [19],100
same,"Plant response rating, Foxtail, Giant",[13]; [14],30
same,"Foxtail, Giant plant response rating",[13]; [15],45
same,"Plant response rating, Foxtail, Giant",[13]; [15],50
same,"Plant response rating, Foxtail, Giant",[13]; [16],60
same,"Plant response rating, Foxtail, Giant",[13]; [17],70
same,"Plant response rating, Foxtail, Giant",[13]; [20],60
same,"Plant response rating, Foxtail, Giant",[13]; [18],75
same,"Plant response rating, Foxtail, Giant",[13]; [19],90
